For the experiment, the system named is Mycobacterium tuberculosis variant bovis. The experiment in a line: Antitubercular activity against Mycobacterium bovis. It counts as functional, organism-based.

The source made the active and inactive calls. No cut-off for these calls is given here.

On to `CC(=O)N1c2ccccc2[C@@H]2[C@@H](C[C@@H]3O[C@H]23)[C@H]1c1ccc(Cl)cc1`, for which the outcome was inactive.
As to `CC(=O)N1c2ccccc2[C@H]2[C@@H](O)[C@H](N=[N+]=[N-])C[C@H]2[C@H]1c1ccccc1`, the outcome was inactive.
As to `Cc1ccccc1[C@H]1Nc2ccccc2[C@H]2[C@@H](O)[C@@H](O)C[C@H]21`, the result was inactive.
As for `Brc1ccc2c(c1)[C@H]1C=CC[C@H]1[C@@H](c1ccccc1)N2`, the entry is “inactive”.
As for `O=[N+]([O-])c1ccc2c(c1)N[C@H](c1ccccc1)[C@@H]1CC=C[C@H]21`, the entry is “inactive”; as for `CC(=O)N1c2ccccc2[C@H]2C=CC[C@H]2[C@H]1c1ccc(Cl)cc1`, “inactive”.
The same measure for `CC(=O)N1c2ccccc2[C@H]2[C@@H](O)[C@H](N=[N+]=[N-])C[C@H]2[C@H]1c1cccc(Br)c1`: “inactive”; for `Fc1ccc2c(c1)N[C@H](c1ccccc1)[C@@H]1CC=C[C@H]21`: “inactive”.
As to `C1=C[C@@H]2c3ccccc3N[C@H](c3ccccc3)[C@@H]2C1`, the result was inactive.
Regarding `O[C@@H]1[C@@H]2c3ccccc3N[C@H](c3ccc(Cl)cc3)[C@@H]2C[C@@H]1O`, the result was inactive.
Regarding `CC(=O)N1c2cc([N+](=O)[O-])ccc2[C@H]2[C@@H](O)[C@H](N=[N+]=[N-])C[C@H]2[C@H]1c1ccccc1`, the outcome was inactive.
The same measure for `CC(=O)N1c2cc([N+](=O)[O-])ccc2[C@H]2C=CC[C@H]2[C@H]1c1ccccc1`: “inactive”; for `CC(=O)N1c2ccccc2[C@@H]2[C@@H](C[C@@H]3O[C@H]23)[C@H]1c1ccccc1`: “inactive”; for `O=[N+]([O-])c1ccc2c(c1)N[C@H](c1ccccc1)[C@@H]1C[C@H](O)[C@H](O)[C@H]21`: “inactive”.
As for `CC(=O)N1c2ccccc2[C@H]2C=CC[C@H]2[C@H]1c1cccc(Br)c1`, the entry is “inactive”; as for `O[C@@H]1[C@@H]2c3ccccc3N[C@H](c3ccccc3)[C@@H]2C[C@@H]1O`, “inactive”; as for `CC(=O)N1c2ccccc2[C@H]2C=CC[C@H]2[C@H]1c1ccccc1C`, “inactive”.
In the case of `C=CCO[C@@H]1[C@@H]2c3ccccc3N(C(C)=O)[C@H](c3ccc(Cl)cc3)[C@@H]2C[C@H]1N=[N+]=[N-]`, the result was inactive.
The same measure for `C=CCO[C@H]1C(n2cc(-c3ccccc3)nn2)C[C@@H]2[C@H]1c1ccccc1N(C(C)=O)[C@@H]2c1ccccc1` (single isomer, unassigned): “inactive”.
Turning to `O[C@@H]1[C@@H]2c3cc(Br)ccc3N[C@H](c3ccccc3)[C@@H]2C[C@@H]1O`, the outcome was inactive.
As for `CC(=O)N1c2ccccc2[C@H]2C=CC[C@H]2[C@H]1c1ccccc1`, the entry is “inactive”.
The same measure for `C=CCO[C@@H]1[C@@H]2c3ccccc3N(C(C)=O)[C@H](c3ccccc3)[C@@H]2C[C@H]1N=[N+]=[N-]`: “inactive”; for `O[C@@H]1[C@@H]2c3ccc(F)cc3N[C@H](c3ccccc3)[C@@H]2C[C@@H]1O`: “inactive”.
The same measure for `O[C@@H]1[C@@H]2c3ccccc3N[C@H](c3cccc(Br)c3)[C@@H]2C[C@@H]1O`: “inactive”.
Consider `CC(=O)N1c2ccccc2[C@H]2[C@@H](O)[C@@H](O)C[C@H]2[C@H]1c1ccccc1`, for which the outcome was inactive.
As for `CC(=O)N1c2ccccc2[C@@H]2[C@@H](C[C@@H]3O[C@H]23)[C@H]1c1cccc(Br)c1`, the entry is “inactive”; as for `Cc1ccccc1[C@H]1Nc2ccccc2[C@H]2C=CC[C@H]21`, “inactive”; as for `Brc1cccc([C@H]2Nc3ccccc3[C@H]3C=CC[C@H]32)c1`, “inactive”.
Consider `Clc1ccc([C@H]2Nc3ccccc3[C@H]3C=CC[C@H]32)cc1`, for which the result was inactive.
As for `CC(=O)N1c2cc([N+](=O)[O-])ccc2[C@@H]2[C@@H](C[C@@H]3O[C@H]23)[C@H]1c1ccccc1`, the entry is “inactive”; as for `C=CCO[C@@H]1[C@@H]2c3ccccc3N(C(C)=O)[C@H](c3cccc(Br)c3)[C@@H]2C[C@H]1N=[N+]=[N-]`, “inactive”; as for `CC(=O)N1c2ccccc2[C@H]2[C@@H](O)[C@H](N=[N+]=[N-])C[C@H]2[C@H]1c1ccc(Cl)cc1`, “inactive”.
The same measure for `COC(=O)C[C@@H]1[C@H](C(=O)OC)c2ccccc2N(C(C)=O)[C@@H]1c1ccccc1`: “inactive”; for `CC(=O)N1c2ccc(Br)cc2[C@H]2C=CC[C@H]2[C@H]1c1ccccc1`: “inactive”.

Source of the values: ChEMBL document CHEMBL4184140, “Expanding the tetrahydroquinoline pharmacophore” (Bioorg Med Chem Lett, 2017).
